This passage reports EC50, IC50 and inhibition in vivo results from patent publication US20180243298A1, “TRPV3 MODULATORS” (AbbVie Inc., priority 2015, published 2018).

The subject of one assay is TRPV3. The note with it: TRPV3 activation, relatively weak and nonspecific across TRPs; cited from earlier work.
Another assay deals with T1, human TRPV3 (Homo sapiens, UniProt Q8NET8).
T1 construct: expressed in transfected cells; host or cells: HEK293
T1 sequence (Q8NET8 1-790): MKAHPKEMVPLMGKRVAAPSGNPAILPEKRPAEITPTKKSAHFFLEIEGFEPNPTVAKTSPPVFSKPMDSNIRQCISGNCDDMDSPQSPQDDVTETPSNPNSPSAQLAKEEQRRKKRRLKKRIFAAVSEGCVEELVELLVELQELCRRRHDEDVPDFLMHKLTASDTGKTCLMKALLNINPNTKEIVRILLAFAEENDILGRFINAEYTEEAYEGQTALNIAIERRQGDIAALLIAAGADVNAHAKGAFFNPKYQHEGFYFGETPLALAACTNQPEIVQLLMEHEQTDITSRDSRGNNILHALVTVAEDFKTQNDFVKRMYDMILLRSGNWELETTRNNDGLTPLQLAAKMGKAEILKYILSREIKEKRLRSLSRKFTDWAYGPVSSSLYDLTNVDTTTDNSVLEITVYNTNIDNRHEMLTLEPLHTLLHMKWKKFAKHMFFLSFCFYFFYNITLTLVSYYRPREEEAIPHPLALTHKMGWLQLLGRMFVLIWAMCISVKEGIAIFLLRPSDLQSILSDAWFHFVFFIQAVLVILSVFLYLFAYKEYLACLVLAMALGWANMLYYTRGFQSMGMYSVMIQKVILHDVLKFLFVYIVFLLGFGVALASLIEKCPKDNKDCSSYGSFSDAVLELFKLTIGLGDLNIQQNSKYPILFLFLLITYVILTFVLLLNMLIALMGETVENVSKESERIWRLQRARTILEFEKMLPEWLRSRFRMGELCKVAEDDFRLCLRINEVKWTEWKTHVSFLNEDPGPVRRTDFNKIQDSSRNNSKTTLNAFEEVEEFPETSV
Put plainly: Calcium flux assay (FLIPR TETRA), recombinant HEK293 cells expressing TRPV3, 2-APB response. It counts as cell-based. The note with it: 2-APB at its EC80. The method, boiled down:
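HEK293 cells stably expressing human or mouse TRPV3, loaded with Calcium-4 dye for 90–120 min, read on FLIPR TETRA. Peak fluorescence rise over baseline expressed as percent of the maximal response to 2-APB at its EC80 without compound.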
In general terms: Calcium flux is commonly read through the fluorescence of an indicator in the cells.

Another assay deals with FITC-challenged mice. Put plainly: Contact hypersensitivity (CHS) to FITC, ear swelling in mice. The assay is classed as in vivo, mice (BALB/c). To be noted: Mus musculus; 30 mg/kg bid po; reduction in ear skin thickness vs vehicle, 24 hours after FITC challenge; read-out: FITC % effect. How it is done:
(ii) In vivo Data The following protocol was used to evaluate the efficacy of a compound against contact hypersensitivity:
Young adult female BALB/c mice (18±2 g body weight at 6-8 weeks old) Charles River Laboratories) were maintained under pathogen-free conditions and housed in an animal room maintained t at temperature of 21±1° C. and a humidity of 43±5%. Induction of contact hypersensitivity (CHS) and ear thickness measurements for all animals were carried out under light anesthesia (3-5% isoflurane/oxygen) for 1-2 minutes.
Contact hypersensitivity consists of the afferent or initiation sensitizing phase, and the efferent or elicitation phase. The latter phase occurs when epidermal cells encounter a particular antigen to which the epidermal cells have previously been exposed, and is characterized in rodents by localized swelling in the skin.
Fluorescein isothiocyanate (FITC) was purchased from Sigma-Aldrich and dissolved in 1:1 in acetone/dibutylphthalate prior to epicutaneous application. Mice were sensitized by painting epicutaneously 40 uL of 0.5% FITC on the abdomen ventral skin shaved one day prior to sensitization. Six days later, mice were challenged by painting epicutaneously 20 uL total volume of 0.5% FITC on the right ear (10 uL on either side). Control mice were treated with vehicle only. Ear swelling was measured 24 hours after challenge. Treatment groups were dosed orally at a dose volume of 10 mL/kg with compounds either BID (1 hour prior to FITC challenge, 8 hours after first dose and 2 hours prior to ear swelling measurement at 24 hours post FITC challenge) or QD (1 hour prior to FITC challenge and 2 hours prior to ear swelling measurement at 24 hours post FITC challenge). Inflammation was determined by the degree of ear swelling of the hapten exposed ear compared with the untreated ear with a Quick Mini thickness-gauge caliber (Mitutoyo, Japan). The change in ear thickness after allergen treatment can be used to calculate the percent suppression of contact hypersensitivity.
The level of compound-mediated suppression of ear skin thickness in FITC-challenged mice is indicated in Table 2 wherein “A” refers to a reduction in ear skin thickness of >50%, “B” refers to a reduction in ear skin thickness of 30-50% and “C” refers to a reduction in ear skin thickness of <30% relative to vehicle-treated animals.

`NCCOB(c1ccccc1)c1ccccc1` [Example 2-APB, 2-aminoethoxydiphenylborate]: the EC50 in the assay on TRPV3 was around 40 µM.
Take `c1ccc(B(OB(c2ccccc2)c2ccccc2)c2ccccc2)cc1` [DPBA, diphenylboronic anhydride]: the EC50 with TRPV3 was around 40 µM.
Take `COc1ncnc(OC)c1C(=O)Nc1nc(C(F)(F)F)c(-c2cncc(C(F)(F)F)c2)s1` [Example 196, 4,6-dimethoxy-N-{4-(trifluoromethyl)-5-[5-(trifluoromethyl)pyridin-3-yl]-1,3-thiazol-2-yl}pyrimidine-5-carboxamide]: the IC50 at human TRPV3 was below 50 nM. For the same compound, in the assay on FITC-challenged mice, the inhibition in vivo at 30 mg/kg is below 30%.
As for `COc1ncnc(OC)c1C(=O)Nc1nc(C(F)(F)F)c(-c2cccc(C#N)c2)s1` [Example 40, N-[5-(3-cyanophenyl)-4-(trifluoromethyl)-1,3-thiazol-2-yl]-4,6-dimethoxypyrimidine-5-carboxamide], on human TRPV3, the IC50 is below 50 nM. For the same compound, the inhibition in vivo at 30 mg/kg in the assay on FITC-challenged mice was below 30%.

The term EC50 denotes the midpoint of the concentration-response curve. As a reminder, the IC50 is the point on the concentration scale where inhibition reaches its midpoint.
